According to patent US11584712B2, “Alkylamine-substituted perthiocarbamates as dual precursors to hydropersulfide and carbonyl sulfide” (The Johns Hopkins University, priority 2020, dated 2023):
“Also recorded” adds a separate entry of the source.

Experiments:
[1] = system: isolated-perfused murine heart; assay: Isolated perfused heart (Langendorff) ischemia-reperfusion, infarct size by TTC staining; details: ex vivo mouse heart, 20 min global ischemia, 100 μM infused first 7 min of 90 min reperfusion; KH control 42%
Excerpt: Male C57BL/6J mice obtained from Jackson Laboratories (Bar Harbor, Me., USA) were used for all experiments. Mice were between 12 and 14 weeks of age at the time of experimentation. All animals received humane care in compliance with the “Principles of Laboratory Animal Care” formulated by the National Society for Medical Research and the “Guide for the Care and Use of Laboratory Animals” published by the US National Institutes of Health. The Animal Care and Use Committee from Johns Hopkins University approved of this study.
After anticoagulation with heparin and cervical dislocation, a thoracotomy was performed and the heart was quickly excised and placed in ice-cold Krebs-Henseleit buffer (in mmol/L: 11.1 D-glucose, 1.2 MgSO4, 1.2 KH2PO4, 4.7 KCl, 118 NaCl, 2 CaCl2), 25 NaHCO3). The aorta was cannulated, and the heart was perfused with Krebs-Henseleit buffer (oxygenated with 95% O2/5% CO2 and maintained at pH 7.4) in retrograde fashion at a constant pressure of 80 mm/Hg at 37° C. After baseline equilibration for 20 min, mouse hearts were subjected to 20 min of no-flow global ischemia followed by 90 min of reperfusion. Pharmacological postconditioning with 7b (100 μM) was performed at the onset of reperfusion for 7 min. Hearts were then reperfused for a total of 90 min. Control hearts received no pharmacological postconditioning. […]

H9c2 cells [2] = assay: H9c2 cell protection from H2O2-mediated oxidative stress, Cell Counting Kit-8 (CCK-8); format: cell-based, rat; details: 2 h pretreatment (7b 50, 100, 150 μM; byproduct 150 μM), then H2O2 200 μM 2 h
Experimental: Cells were seeded at a density of 5×10^3 cells/well. After 24 h, precursor 7b or byproduct 2b was added at 20 μL volumes using DMSO:H2O (<0.01% DMSO as the vehicle). Cells were incubated for 2 h before media was removed and the cells gently washed with PBS (pH 7.4). Then, 180 μL of fresh media and 20 μL H2O2 diluted into H2O were added and cells were incubated for an additional 2 h. At the completion of H2O2 exposure, each well is carefully washed 3 times with PBS (pH 7.4) before adding 100 μL of media, without-FBS, containing 10% v/v CCK-8 (Dojindo) and incubated for 3 h prior to obtaining absorbance values at 450 nm. The relative % viability was calculated as 100 times the ratio of the Abs450 (pretreated, H2O2-exposed) over Abs450 (vehicle-treated, non H2O2-exposed).

[3] = RSSH generation in the presence of glutathione by UPLC-MS; format: physicochemical
Experimental: The reaction mixture was quenched with 1% formic acid and analyzed by UPLC-MS. Under these conditions, 42±1 μM of 2b formation is observed. RSSH-derived symmetrical dialkyl polysulfide labeled as S3 and S4 (R^1SSnSR^1, n=1-2), and unsymmetrical dialkyl polysulfide labeled as ′S2 to ′S4 (R^1SSnSR^3, n=0-2) formation are observed. 4-Hydroxyphenyl acetamide, labeled as asterisk, is used as internal standard in these experiments;

H9c2 cells [4] = assay: Cytotoxicity study with SYTOX Green nucleic acid stain; format: cell-based, rat; details: 24 h exposure, 0-150 μM
Experimental: H9c2(2-1) embryonic rat heart myoblasts were obtained from the American Type Culture Collection. Cells were grown in Dulbecco's […] (DMEM), supplemented with fetal bovine serum (FBS) 10%, penicillin 100 U/mL and streptomycin 100 μg/mL. They were propagated in T75-flasks, split before reaching 70-80% confluence (usually every day or every second day), and used within 11 passages. Cells were passaged to tissue culture treated 96-well microtiter plates at the specified density in 180 μL volumes and incubated for 24 h.
Cells were seeded at a density of 1×10^4 cells/well. […] Then, 100 μL of media containing 3 μM SYTOX™ Green nucleic acid stain (Invitrogen) was added and the cells were incubated for 2 h before fluorescence readings were obtained at 485Ex/538Em (Step 1). Finally, an additional 100 μL of media containing 3 μM SYTOX™ and 0.2% Triton X-100 was added in order to permeabilize all cells and incubated for 1 h before fluorescence values measured (Step 2). The relative % cells surviving was calculated as a 100% minus the ratio of the fluorescence value of Step 1 over Step 2 (% cells surviving=100%−(FL538 (Step 1)/FL538(Step 2)).
Cells were seeded at a density of 1×10^4 cells/well. […] The relative % cells surviving was calculated as a 100% minus the ratio of the fluorescence value of Step 1 over Step 2 (% cells surviving=100%−(FL538 (Step 1)/FL538(Step 2)).

## COC(=O)C(NC(C)=O)C(C)(C)SSC(=O)N(C)CCN (centres unmarked) [Precursor 7b, 2-(((3-acetamido-4-methoxy-2-methyl-4-oxobutan-2-yl)disulfannecarbonyl)(methyl)amino)ethan-1-aminium]
[1]
  infarct size: 16%
H9c2 cells [2]
  protection against H2O2-mediated toxicity (CCK-8 viability): dose-dependent attenuation
[3]; 7b 100 μM, glutathione 500 μM, pH 7.4 ammonium bicarbonate 50 mM with DTPA, 37° C., 45 min
  byproduct 2b formation: 42 ± 1 µM
[3]; in the presence of GSH, pH 7.4
  yield of byproduct 2b: 42%
H9c2 cells [4]
  cytotoxicity toward H9c2 cells: no toxicity; also recorded: not cytotoxic
